The text below walks through data of publication PMC4696607 (ACS infectious diseases, 2015).

Broadly, the inhibition is the change of the read-out against control, counted positive when it falls. A word on the IC50: it is the point on the concentration scale where inhibition reaches its midpoint. In general, CC50 refers to the concentration at which the toxic effect on the cells reaches its halfway point. Higher therefore signals better tolerance by the cells. By EC50 is commonly meant the concentration giving half of the maximal effect. A higher EC50 goes with weaker potency.

Data set [1] concerns the target T1, WNV MTase (West Nile virus, UniProt Q9Q6P4). The experiment in a line: N7 methylation inhibition assay, WNV MTase. As to conditions: for IC50: WNV MTase.
The target of data set [2] is T1, WNV MTase. The experiment in a line: 2′-O methylation inhibition assay, WNV MTase.
The test system of the next data set is BHK-21 cells. The experiment in a line: MTT cell proliferation cytotoxicity assay, BHK-21. Format: cell-based. As to conditions: for CC50: BHK-21 cells, MTT, 42 h; for CC50 relative to IC50 (fold higher): BHK-21 CC50 vs in vitro IC50.
The next data set has as its system WNV. Briefly: microbe, parasite or virus in culture. Format: cell-based, West Nile virus (WNV). Conditions: West Nile virus, 42 h.
In data set [3] the test system is anthrax lethal factor (LF). Conditions: cited from earlier work.
For another data set, the system named is DENV-2. The experiment in a line: microbe, parasite or virus in culture. Format: cell-based, Dengue virus (DENV-2). Conditions: Dengue virus, DENV2, A549, 42 h.
A further data set has as its system WEEV. Format: cell-based.
The subject of data set [4] is herpes simplex virus (HSV)-1. As to conditions: cited from earlier work.
The conditions of data set [5]: cited from earlier work.
For another data set, the system named is JEV. Briefly: microbe, parasite or virus in culture. Conditions: Japanese encephalitis virus, A549, 42 h. Format: cell-based, Japanese encephalitis virus (JEV).
A further data set has as its system SLEV. Briefly: organism not typed. Format: cell-based, St. Louis encephalitis viruses (SLEV). As to conditions: A549, 42 h.
In a further data set the target is DENV3MTase (Dengue virus type 3, UniProt Q6YMS4). The experiment in a line: Competitive SAM binding assay.
Sequence of DENV3MTase (Q6YMS4 2492-2753): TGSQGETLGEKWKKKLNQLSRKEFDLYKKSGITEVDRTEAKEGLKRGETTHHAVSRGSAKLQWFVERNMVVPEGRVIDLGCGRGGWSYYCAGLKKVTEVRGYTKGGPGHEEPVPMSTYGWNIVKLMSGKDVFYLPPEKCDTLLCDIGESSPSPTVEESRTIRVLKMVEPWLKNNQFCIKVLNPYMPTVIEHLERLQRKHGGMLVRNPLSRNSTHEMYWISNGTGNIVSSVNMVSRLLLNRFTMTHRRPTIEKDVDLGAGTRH
The next data set relates to VSV. Format: cell-based.
Setting [6] is: read-out: IC50 2′-O, with CHAPS, WNV MTase, with CHAPS.
Where [7] appears, read: read-out: IC50 N7, no CHAPS, no CHAPS.
[8] abbreviates: IC50 N7, with CHAPS, with CHAPS.

The structures appear in SMILES notation. Bounds are passed on as bounds.

T1 sequence (Q9Q6P4 2529-2794): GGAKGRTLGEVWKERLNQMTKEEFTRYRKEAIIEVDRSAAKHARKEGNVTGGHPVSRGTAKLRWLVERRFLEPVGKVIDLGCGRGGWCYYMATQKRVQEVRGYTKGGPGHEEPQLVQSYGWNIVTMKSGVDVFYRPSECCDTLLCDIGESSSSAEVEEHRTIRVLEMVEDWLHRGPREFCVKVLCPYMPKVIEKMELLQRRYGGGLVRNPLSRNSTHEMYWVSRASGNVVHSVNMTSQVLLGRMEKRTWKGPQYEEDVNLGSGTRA

With `Nc1ncnc2c1ncn2[C@@H]1O[C@H](C[C@@H](N)CC[C@H](N)C(=O)O)[C@@H](O)[C@H]1O` [SIN, sinefungin, reference compound], the “effect of CHAPS on inhibition activity” value at WNV MTase [1] (N7 inhibition with detergent CHAPS) is reported as “not affected at all”. For the same compound, at WNV MTase [1] (read-out: inhibition of N7 activity of the WNV MTase), the inhibition at 150 µM is around 80%.

Turning to `Nc1nc(-c2cccc([N+](=O)[O-])c2)cc(-c2cc(-c3cccc([N+](=O)[O-])c3)nc(N)n2)n1` [NSC 371880], the half-inhibitory concentration (IC50) stood at 72 µM at WNV MTase [2] (setting [6]) and 63 µM at WNV MTase [1] (setting [7]). Half-maximal cytotoxicity with BHK-21 cells (CC50) was put at 212 µM.

Turning to `O=C1C2=C(Nc3cc([N+](=O)[O-])ccc3N2)OC1c1ccc(C2OC3=C(Nc4ccc([N+](=O)[O-])cc4N3)C2=O)cc1` (stereo not shown) [NSC 372295], the IC50 at WNV MTase [2] (setting [6]) was 57 µM; on WNV MTase [1] (setting [7]) it was 62 µM. The midpoint of cytotoxicity with BHK-21 cells, the CC50, lay at 126 µM.

Consider `CC1OC(CC(=O)O)Cc2c1c(O)c1c(O)cc(-c3cc(=O)c4c(=O)c5c(c(=O)c=4c3=O)CC(CC(=O)O)OC5C)c(O)c1c2O` (stereo not shown) [NSC 293161], for which the half-maximal inhibitory concentration (IC50) on WNV MTase [2] (setting [6]) stood at 54.6 µM; at WNV MTase [1] (setting [7]), 13.2 µM; at WNV MTase [1] (read-out: IC50 N7, with CHAPS, with CHAPS) it was 31 µM. Also, the CC50 in the data set with BHK-21 cells was found to be 25 µM.

Regarding `Nc1ccc(-c2ccc(Nc3cc(S(=O)(=O)O)c(N)c4c3C(=O)c3ccccc3C4=O)cc2)c(S(=O)(=O)O)c1` [NSC 125910], the IC50 against WNV MTase [2] turned out to be 3.2 µM; on WNV MTase [1] (IC50 N7, no CHAPS, no CHAPS), 7.6 µM; against WNV MTase [1] (setting [8]) it was 17.6 µM. Besides, the response in the data set with WNV was half-maximal at 2.6 µM (EC50). Besides, in the data set with BHK-21 cells, the “CC50 relative to IC50 (fold higher)” value is 20 fold.

Regarding `Cc1cc(N)c2cc(NC(=O)Nc3ccc4nc(C)cc(N)c4c3)ccc2n1` [NSC 12155, aminoquinuride], in [3], the “anthrax lethal factor (LF) activity” value was “inhibited”. Also, the half-inhibitory concentration (IC50) at WNV MTase [2] stood at 3 µM; against WNV MTase [1] (IC50 N7, no CHAPS, no CHAPS) it was 1.4 µM; against WNV MTase [1] (setting [8]) it was 0.87 µM; at DENV3MTase it was 1.2 µM. Besides, the 50% effective concentration (EC50) turned out to be 1 µM in the data set on WNV, 7 µM with DENV-2, 3.1 µM in the data set on JEV and 5.1 µM with SLEV. Also, the “inhibition of virus growth” value with WEEV and with VSV was “did not inhibit” throughout. In [4], the “cell adhesion by HSV-1” value is on record as “prevent cell adhesion”. Further, the binding to glycosaminoglycans result in [5] was “bind to glycosaminoglycans”. Further, in the data set on BHK-21 cells, the “CC50 relative to IC50 (fold higher)” value turned out to be 20 fold.

Turning to `S=C(Nc1ccc2c(c1)Cc1ccccc1-2)Nc1ccc2c(c1)Cc1ccccc1-2` [NSC 23217], the 50% inhibitory concentration (IC50) was 7.4 µM against WNV MTase [2]; 15.7 µM against WNV MTase [1] (IC50 N7, no CHAPS, no CHAPS); above 300 µM against WNV MTase [1] (setting [8]).
